{
  "source": "patent US11491129B2",
  "about": "“Oral formulations of bipolar trans carotenoids” (priority 2010, dated 2022)",
  "key": {"[1]": {"test_system": "neurons", "assay": "Rat model of hemorrhagic stroke (collagenase), neuronal death", "assay_type": "in vivo", "details": "TSC injected starting 3 hours after collagenase, sacrifice at 48 hours", "method": "The first study in which this was done was one conducted using a rat model of hemorrhagic stroke. […] TSC was then injected starting 3 hours after the collagenase was administered, and the animals were sacrificed 48 hours after the administration of the collagenase.\nWhen there is a hemorrhage in the brain, the blood pools and forms a hematoma. Around the periphery of this hematoma, there is a death of neuronal cells. […] Use of the stain, fluorojade, allows one to count the numbers of “dead” neurons in a given brain section of the brain. This was done in the area around the hematomas formed in the hemorrhagic stroke rat model."}, "[2]": {"assay": "Behaviour of TSC under acidic conditions (stomach)", "assay_type": "physicochemical", "description": "TSC is precipitated under acidic conditions, such as those which exist in the stomach. […] TSC is not stable in acidic conditions and will be converted to the cis isomer which can precipitate. A system has been devised that will protect TSC in the harsh, acidic environment of the stomach and release TSC in a more favorable pH region. A more favorable pH does exist in the small intestines. […] See Examples below. TSC's effectiveness is believed to be dependant on the TSC concentrations levels found in the body. The effectiveness of TSC can be prolonged by administering TSC orally. […] TSC must be protected from the harsh environment of the stomach and be release in a more favorable, higher pH region of the small intestine. For this study, tablets of TSC were made (Table 1) and were enterically coated with either Eudragit L100 or cellulose acetate phthalate (CAP). The integrity of both types of protective coatings were confirmed in a USP dissolution study in which enterically coated tablets were first place in a dissolution cell containing simulated gastric fluid (SGF), then transferred to another cell containing simulated intestinal fluid (SIF). […] This study was performed according to USP protocols."}, "[3]": {"assay": "Intestinal (jejunum) absorption of TSC and effect of gamma cyclodextrin", "assay_type": "in vivo", "details": "rat jejunum; approx. 60 mg/kg TSC; TSC:gamma cyclodextrin 0.5:1 up to 4:1 (wt:wt); FIG. 2", "method": "(§1) Male Sprague-Dawley (SD) and Wistar rats weighing approximately 300-400 g each were fasted for 24 hours prior to each experiment. Water was given ad libitum and coprophagy was prevented by using cages with wire-mesh floors. Anesthesia was induced and maintained with isoflurane. The carotid artery was exposed and cannulated with PE-50 tubing. The cannula was secured using silk sutures and 2% lidocaine was applied to the wound.\nFollowing cannulation, a front midline […] was made, exposing the abdomen and intestinal segments. In this study, the jejunum was isolated and the TSC formulation was administered in the proximal jejunum. Approximately 60 mg/kg TSC was administered at various gamma cyclodextrin ratios of 0.5:1 up to 4:1 (wt. TSC:wt. gamma cyclodextrin). Movement of TSC within the intestinal segments was not restricted distal to the site of administration. The intestine was replaced and the abdomen closed with sutures. Approximately 0.3 mL blood samples were taken for the carotid artery at discrete time intervals following TSC administration. A small amount of sodium heparin was used as an anticoagulant. The blood samples were centrifuged and the resulting plasma volume mixed with 3 volumes of methanol and vortexed. The plasma mixture was then centrifuged and the supernatant was analyzed by HPLC to determine TSC levels."}, "[4]": {"assay": "Scalability for Cmax: TSC with gamma cyclodextrin 1:1 in jejunum", "assay_type": "in vivo", "details": "rat jejunum; 2.5, 5, 10 and 60 mg/kg TSC; TSC:gamma cyclodextrin 1:1; FIG. 4", "method": "The dosage of TSC used in the above study is large, therefore, additional doses of TSC were administered with gamma cyclodextrin at a ratio of 1:1 (wt. TSC:wt. gamma cyclodextrin) in order to determine the scalability of systemic absorption (in terms of Cmax) with respect to TSC dosing amount. For the following study, TSC was administered to the jejunum intestinal segment at the following dosages: 2.5, 5, 10, and 60 mg/kg.\nas §1, with “For this study, male” for “Male”\nFollowing cannulation, a front midline […] was made, exposing the abdomen and intestinal segments. In this study, the jejunum was isolated and the TSC formulation was administered in the proximal jejunum. Movement of TSC within the intestinal segments was not restricted distal to the site of administration. The intestine was replaced and the abdomen closed with sutures. […] The plasma mixture was then centrifuged and the supernatant was analyzed by HPLC to determine TSC levels."}, "[5]": {"test_system": "B16 (mouse melanoma) cells", "assay": "Pulmonary metastasis mouse model, B16 tumor counts in lungs", "assay_type": "in vivo", "description": "The pulmonary metastasis mouse model is a widely used model for the evaluation of tumor therapy. With B16 (mouse melanoma) cells, essentially all cells “take” upon intravenous cell injection in the tail vein, and the tumors are preferentially formed in the lungs. Thus, the term pulmonary metastasis is widely used even though every resulting pulmonary nodule is technically an independent “primary” tumor rather than a true metastasis.\nThere is always a fraction of nodules that is amelanotic (“white”) though, and this requires careful counting in order not to underestimate the tumor burden.\nFor the subject studies, eight-week-old female C57BL/6 mice were obtained from Charles River Laboratories. The mice were housed in groups of 5 or fewer, and received food and water ab libitum.\nB16 cells were cultured by the Center for Cell Signaling of the University of Virginia using a standard protocol. The cells were received while they were in an exponential growth phase. The cells were supplied at a concentration of 5×10^5 cells/mL in Hank's buffered salt solution (HBSS).\nThe cells were injected immediately upon receipt, and this day was designated as Day 0. On Day 0, all of the mice were injected intravenously in the tail vein with 0.1 mL of the cell suspension, meaning that each mouse received 0.5×10^5 cells. The mice were then left alone until Day 4.\nOn Day 4, the mice were divided into two groups: Group A, consisting of 5 mice, received an intravenous injection of 0.05 mL of saline in the tail vein. Group B, composed of 7 mice, received an intravenous injection of 0.05 mL of a TSC solution in the tail vein, for a TSC dosage of 0.142 mg/kg/day. The same injections were repeated on Days 5-8 and on Days 11-15. On Day 18, the mice were sacrificed using carbon dioxide. The lungs were excised, rinsed and placed in Fekete's Solution and stored at room temperature.\nLater, the lungs were assessed visually, in random, blinded order, to obtain a visual count of the numbers of tumors. […] Thus, the tumors were counted visually in two separate groups: small tumors and medium/large tumors. Although the majority of the tumors were black, there were also some white tumors."}, "[6]": {"test_system": "neurons", "assay": "Rat model of Parkinson's disease (6-OHDA), pretreatment, live neuron counts", "assay_type": "in vivo", "details": "TSC 0.1 mg/kg for 7 days preceding 10 μg 6-OHDA; sacrifice 4 weeks later; FIG. 8", "method": "Another model that was used examined the effect of TSC on neuronal viability is a rat model of Parkinson's disease. In this model, a burr hole is drilled through the skull and into the region of the substantia nigra. The Parkinson's-like condition is induced by injecting 6-hydroxydopamine (6-OHDA) into the brain. An amount of 10 μg of 6-OHDA is frequently injected in this model, and was used in the first study.\nIn the study, TSC was injected at a dosage of 0.1 mg/kg for 7 days preceding the injection of the 6-OHDA (the same dosing regimen as had been done in the crocetin study). Following the injection of the 6-OHDA, no further treatments were given over the next 4 weeks.\nAt that time the rats were sacrificed and the brains removed and sent to Charles River Laboratories for counts of live neurons. […] This allowed the comparison of cell death (treated side count/untreated side count) of the controls, which had been pretreated with saline, to the animals pretreated with TSC."}, "[7]": {"test_system": "neurons", "assay": "Rat model of Parkinson's disease (6-OHDA), post-treatment, live neuron counts", "assay_type": "in vivo", "method": "It is of much more interest to know the effect of post-treatment on neuronal death following the injection of 6-OHDA. To investigate that, 5 μg of 6-OHDA were again injected into the substantia nigra as before, but the treatment began following that injection. The animals were then given daily injections of TSC (0.25 mg/kg) for 4 weeks before sacrifice. The brains were removed and sent to Charles River Laboratories for neuronal counts."}, "[8]": {"test_system": "neurons", "details": "study found in the literature; crocetin pretreatment; cited from earlier work"}, "[9]": {"details": "C57BL/6 mice lungs Day 18, TSC 0.142 mg/kg/day iv, N 7"}, "[10]": {"details": "mean±standard deviation, C57BL/6 mice lungs Day 18, TSC 0.142 mg/kg/day iv, N 7"}},
  "data": [
    {"compound": "CC(/C=C/C=C(\\C)C(=O)[O-])=C\\C=C\\C=C(C)\\C=C\\C=C(/C)C(=O)[O-].[Na+].[Na+]", "note": "[TSC, trans sodium crocetinate]", "values": [
      {"measurement": "less death of the neurons around the periphery of the hematoma", "setting": "[1]", "value": "about 20%"},
      {"measurement": "less neuronal death, fluorojade count of dead neurons around the hematomas", "setting": "[1]; FIG. 7", "value": "approximately 30%"},
      {"measurement": "solubility in the acidic environment of the stomach", "setting": "[2]; TSC is precipitated", "value": "practically insoluble"},
      {"measurement": "stability in acidic conditions", "setting": "[2]; converted to the cis isomer", "value": "not stable"},
      {"measurement": "effect of γ-cyclodextrin on absorption of TSC", "setting": "[3]", "value": "greatly enhances"},
      {"measurement": "linear regression of Cmax versus TSC dosage", "setting": "[4]", "value": "excellent fit"},
      {"measurement": "Small tumors med.", "setting": "[5]; C57BL/6 mice lungs Day 18, TSC 0.142 mg/kg/day iv Days 4-8 and 11-15, N 7", "value": 18},
      {"measurement": "Medium/Large tumors med.", "setting": "[5]; [9]", "value": 19},
      {"measurement": "Total tumors med.", "setting": "[5]; [9]", "value": 34},
      {"measurement": "statistical difference of tumor counts, TSC group vs saline group", "setting": "[5]; Day 18, large standard deviations", "value": "not statistically different"},
      {"measurement": "Medium/Large tumors mean", "setting": "[5]; [10]", "value": "30 ± 24"},
      {"measurement": "Small tumors mean", "setting": "[5]; [10]", "value": "32 ± 29"},
      {"measurement": "Total tumors mean", "setting": "[5]; [10]", "value": "62 ± 53"},
      {"measurement": "percentage of live neurons (treated side count/untreated side count) vs saline controls", "setting": "[6]", "value": "approximately doubled"},
      {"measurement": "more live neurons vs saline", "setting": "[7]; 5 μg 6-OHDA, daily TSC 0.25 mg/kg for 4 weeks after injection, p<0.05, FIG. 9", "value": "about 20%"},
      {"measurement": "effect on viability of live neurons, non-6-OHDA side of the brain", "setting": "[7]; daily TSC 0.25 mg/kg for 4 weeks vs saline, FIG. 10", "value": "no effect"}
    ]},
    {"compound": "CC(/C=C/C=C(\\C)C(=O)O)=C\\C=C\\C=C(C)\\C=C\\C=C(/C)C(=O)O", "note": "[crocetin]", "values": [
      {"measurement": "effect of pretreatment on neuronal death following 10 μg 6-OHDA", "setting": "[8]", "value": "beneficial effect"}
    ]}
  ]
}
